Experiments:
[1] = system: soybean (Glycine max Merr.); assay: Test Example 1: foliar treatment, growth inhibition rate, soybean; format: in vivo; settings: visually observed 17th to 23rd day after application
In short: (§1)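 Visual scoring of growth inhibition, 0% (untreated) to 100% (complete kill), on days 17–23 following post-emergence spray of formulated compound in water (500 L/ha, 0.1 vol % spreader); plants treated at set leaf stages, e.g. corn 2.0–3.5, wheat 1.7–3.4.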

[2] = system: soybean; assay: Test Example 2: soil application on the day after sowing, growth inhibition rate, soybean; format: in vivo, Glycine max Merr.; settings: 250 g/ha active ingredient, observed on 19th to 24th day
In short: (§2)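 Seeds were sown in upland field soil in pots, and on the following day compounds formulated as wettable powders or emulsifiable concentrates were diluted in water (500 liter per hectare) and sprayed onto the soil at prescribed active-ingredient doses. Growth was scored visually 19–24 days later, 0 = untreated to 100% = complete kill.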

[3] = system: greenfoxtail (Setaria viridis L.); assay: Test Example 1: foliar treatment, growth inhibition rate, greenfoxtail; format: in vivo; settings: visually observed 17th to 23rd day after application
In short: (§3)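 Post-emergence foliar spray, pot test; WP/EC formulation in water at 500 L/ha, + 0.1 vol % spreader; leaf stage at treatment: corn 2.0–3.5, green foxtail 1.0–3.0, rice 1.0–2.5, wheat 1.7–3.4; visual % inhibition at 17–23 DAT (0 = untreated, 100 = dead).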

[4] = system: rice; assay: Test Example 2: soil application on the day after sowing, growth inhibition rate, rice; format: in vivo, Oryza sativa L.; settings: 250 g/ha active ingredient, observed on 19th to 24th day
In short: as §2

[5] = system: barnyardgrass (Echinochloa crus-galli L.); assay: Test Example 1: foliar treatment, growth inhibition rate, barnyardgrass; format: in vivo; settings: visually observed 17th to 23rd day after application
In short: (§4)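 Potted upland soil; compounds as wettable powders or emulsifiable concentrates diluted in water at 500 L/ha plus 0.1 vol % spreader, foliar-sprayed at defined leaf stages (rice 1.0–2.5, wheat 1.7–3.4, corn 2.0–3.5, greenfoxtail 1.0–3.0). Growth inhibition (0–100%) scored visually 17–23 days after application.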

[6] = system: prickly sida (Sida spinosa L.); assay: Test Example 1: foliar treatment, growth inhibition rate, prickly sida; format: in vivo; settings: visually observed 17th to 23rd day after application
In short: as §1

[7] = system: rice (Oryza sativa L.); assay: Test Example 1: foliar treatment, growth inhibition rate, rice; format: in vivo; settings: visually observed 17th to 23rd day after application
In short: as §3

[8] = system: corn; assay: Test Example 2: soil application on the day after sowing, growth inhibition rate, corn; format: in vivo, Zea mays L.; settings: 250 g/ha active ingredient, observed on 19th to 24th day
In short: as §2

[9] = system: wheat (Triticum spp.); assay: Test Example 1: foliar treatment, growth inhibition rate, wheat; format: in vivo; settings: visually observed 17th to 23rd day after application
In short: as §3

[10] = system: crabgrass (Digitaria sanguinalis L.); assay: Test Example 1: foliar treatment, growth inhibition rate, crabgrass; format: in vivo; settings: visually observed 17th to 23rd day after application
In short: as §1

[11] = system: crabgrass; assay: Test Example 2: soil application on the day after sowing, growth inhibition rate, crabgrass; format: in vivo, Digitaria sanguinalis L.; settings: 250 g/ha active ingredient, observed on 19th to 24th day
In short: as §2

[12] = system: velvetleaf; assay: Test Example 2: soil application on the day after sowing, growth inhibition rate, velvetleaf; format: in vivo, Abutilon theophrasti MEDIC.; settings: 250 g/ha active ingredient, observed on 19th to 24th day
In short: as §2

[13] = system: prickly sida; assay: Test Example 2: soil application on the day after sowing, growth inhibition rate, prickly sida; format: in vivo, Sida spinosa L.; settings: 250 g/ha active ingredient, observed on 19th to 24th day
In short: as §2

[14] = system: barnyardgrass; assay: Test Example 2: soil application on the day after sowing, growth inhibition rate, barnyardgrass; format: in vivo, Echinochloa crus-galli L.; settings: 250 g/ha active ingredient, observed on 19th to 24th day
In short: as §2

[15] = system: velvetleaf (Abutilon theophrasti MEDIC.); assay: Test Example 1: foliar treatment, growth inhibition rate, velvetleaf; format: in vivo; settings: visually observed 17th to 23rd day after application
In short: as §4

[16] = system: redroot pigweed (Amaranthus retroflexus L.); assay: Test Example 1: foliar treatment, growth inhibition rate, redroot pigweed; format: in vivo; settings: visually observed 17th to 23rd day after application
In short: as §1

[17] = system: redroot pigweed; assay: Test Example 2: soil application on the day after sowing, growth inhibition rate, redroot pigweed; format: in vivo, Amaranthus retroflexus L.; settings: 250 g/ha active ingredient, observed on 19th to 24th day
In short: as §2

[18] = system: wheat; assay: Test Example 2: soil application on the day after sowing, growth inhibition rate, wheat; format: in vivo, Triticum spp.; settings: 250 g/ha active ingredient, observed on 19th to 24th day
In short: as §2

[19] = system: greenfoxtail; assay: Test Example 2: soil application on the day after sowing, growth inhibition rate, greenfoxtail; format: in vivo, Setaria viridis L.; settings: 250 g/ha active ingredient, observed on 19th to 24th day
In short: as §2

[20] = system: corn (Zea mays L.); assay: Test Example 1: foliar treatment, growth inhibition rate, corn; format: in vivo; settings: visually observed 17th to 23rd day after application
In short: as §3

SMILES | Growth inhibition rate (%) Soybean ([1]; 31 g/ha active ingredient) [%] | Growth inhibition rate (%) Soybean [2] [%] | Growth inhibition rate (%) Greenfoxtail ([3]; 31 g/ha active ingredient) [%] | Growth inhibition rate (%) Rice [4] [%] | Growth inhibition rate (%) Barnyardgrass ([5]; 31 g/ha active ingredient) [%] | Growth inhibition rate (%) Prickly sida ([6]; 31 g/ha active ingredient) [%] | Growth inhibition rate (%) Rice ([7]; 31 g/ha active ingredient) [%] | Growth inhibition rate (%) Corn [8] [%] | Growth inhibition rate (%) Wheat ([9]; 31 g/ha active ingredient) [%] | Growth inhibition rate (%) Crabgrass ([10]; 31 g/ha active ingredient) [%] | Growth inhibition rate (%) Crabgrass [11] [%] | Growth inhibition rate (%) Velvetleaf [12] [%] | Growth inhibition rate (%) Prickly sida [13] [%] | Growth inhibition rate (%) Barnyardgrass [14] [%] | Growth inhibition rate (%) Velvetleaf ([15]; 31 g/ha active ingredient) [%] | Growth inhibition rate (%) redroot pigweed ([16]; 31 g/ha active ingredient) [%] | Growth inhibition rate (%) redroot pigweed [17] [%] | Growth inhibition rate (%) Wheat [18] [%] | Growth inhibition rate (%) Greenfoxtail [19] [%] | Growth inhibition rate (%) Corn ([20]; 31 g/ha active ingredient) [%] | also measured
COC(=O)c1c(S(C)(=O)=O)ccc(C(=O)c2cnn(C)c2OC(=O)SC(C)(C)C)c1C [compound 90] | 80 | 30 | 95 | 100 | 80 | 75 | 40 | 10 | 0 | 60 | 100 | 100 | 98 | 100 | 95 | 80 | 100 | 0 | 100 | 0 | –
CCCSC(=O)Oc1c(C(=O)c2ccc(S(C)(=O)=O)c(C(=O)OC)c2C)cnn1CC [compound 85] | 98 | 50 | 100 | 100 | 98 | 98 | 95 | 10 | 60 | 98 | 100 | 100 | 100 | 100 | 98 | 95 | 98 | 0 | 100 | 10 | –
CCSC(=O)Oc1c(C(=O)c2ccc(S(C)(=O)=O)c(CN(C)CC#N)c2C)cnn1C [compound 210] | 50 | 0 | 50 | 0 | 80 | 70 | 50 | 0 | 0 | 30 | 10 | 0 | 40 | 0 | 60 | 10 | 20 | 0 | 0 | 0 | –
CCOc1c(S(C)(=O)=O)ccc(C(=O)c2cnn(CC)c2OC(=O)SCC)c1C [compound 58] | 98 | 0 | 100 | 70 | 95 | 70 | 80 | 0 | 40 | 98 | 100 | 10 | 70 | 60 | 100 | 90 | 90 | 0 | 70 | 0 | –
CCSC(=O)Oc1c(C(=O)c2ccc(S(C)(=O)=O)c(OCCC3OCCO3)c2Cl)cnn1CC [compound 221] | – | 0 | – | 80 | – | – | – | 0 | – | – | 100 | 60 | 60 | 80 | – | – | 100 | 0 | 70 | – | Growth inhibition rate (%) Soybean ([1]; 63 g/ha active ingredient): 100%; Growth inhibition rate (%) Greenfoxtail ([3]; 63 g/ha active ingredient): 50%; Growth inhibition rate (%) Barnyardgrass ([5]; 63 g/ha active ingredient): 100%; Growth inhibition rate (%) Prickly sida ([6]; 63 g/ha active ingredient): 40%; Growth inhibition rate (%) Rice ([7]; 63 g/ha active ingredient): 20%; Growth inhibition rate (%) Wheat ([9]; 63 g/ha active ingredient): 0%; Growth inhibition rate (%) Crabgrass ([10]; 63 g/ha active ingredient): 50%; Growth inhibition rate (%) Velvetleaf ([15]; 63 g/ha active ingredient): 60%; Growth inhibition rate (%) redroot pigweed ([16]; 63 g/ha active ingredient): 80%; Growth inhibition rate (%) Corn ([20]; 63 g/ha active ingredient): 0%
CCSC(=O)Oc1c(C(=O)c2ccc(S(C)(=O)=O)c(OC)c2C)cnn1C [Compound No. 35, 5-(ethylthio)carbonyloxy-1-methylpyrazol-4-yl 3-(methoxy)-2-methyl-4-(methylsulfonyl)phenyl ketone] | 90 | – | – | – | – | 40 | – | – | – | – | – | – | – | – | – | 90 | – | – | – | – | inhibition at 250 g/ha ([2]; Glycine max): 0%; pest or weed control at 31 g/ha ([3]; Setaria viridis, 31 g/ha active ingredient): 100%; inhibition at 250 g/ha ([4]; Oryza sativa): 90%; pest or weed control at 31 g/ha ([5]; Echinochloa crus-galli, 31 g/ha active ingredient): 90%; pest or weed control at 31 g/ha ([7]; Oryza sativa, 31 g/ha active ingredient): 80%; inhibition at 250 g/ha ([8]; Zea mays): 0%; pest or weed control at 31 g/ha ([9]; Triticum, 31 g/ha active ingredient): 0%; pest or weed control at 31 g/ha ([10]; Digitaria sanguinalis, 31 g/ha active ingredient): 80%; inhibition at 250 g/ha ([11]; Digitaria sanguinalis): 100%; inhibition at 250 g/ha ([12]; Abutilon theophrasti): 20%; inhibition at 250 g/ha ([13]; Sida spinosa): 90%; inhibition at 250 g/ha ([14]; Echinochloa crus-galli): 90%; pest or weed control at 31 g/ha ([15]; Abutilon theophrasti, 31 g/ha active ingredient): 80%; inhibition at 250 g/ha ([17]; Amaranthus retroflexus): 95%; inhibition at 250 g/ha ([18]; Triticum aestivum): 0%; inhibition at 250 g/ha ([19]; Setaria viridis): 70%; pest or weed control at 31 g/ha ([20]; Zea mays, 31 g/ha active ingredient): 0%
